Experimental data as given in patent publication US20240116985A1, “STAPLED PEPTIDES AND METHODS THEREOF” (priority 2020, published 2024).
In brackets after ≈: the same amount, converted by molar mass.

Legend:
[1] = CHI Log D procedure; assay type: physicochemical; details: pH 7.4
[2] = Solubility in PBS; assay type: physicochemical
Summary of the method: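 HPLC quantitation of peptide remaining in the PBS supernatant after ultracentrifugation, referenced to a 50 μM solution in DMSO.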

Compound	CHI Log D [1]	Solubility [2] [µM]
CC(=O)N1CCC[C@]12CC=CCCCC1(CCCC=CCCCCCC[C@@](C)(C(=O)N[C@@H](Cc3ccccc3)C(=O)N[C@@H](Cc3csc4ccccc34)C(=O)N[C@@H](CCC(N)=O)C(N)=O)NC(=O)[C@H](C)NC(=O)[C@H](Cc3c[nH]cn3)NC(=O)[C@H](C)NC(=O)[C@H](C)NC(=O)[C@H](CC(=O)O)NC(=O)[C@H](CC(=O)O)NC1=O)NC(=O)[C@H](C)NC(=O)[C@H](CC(=O)O)NC2=O (stereo partly drawn) [I-363, Ac-PL3-Asp-Ala-B5-Asp-Asp-Ala-Ala-His-Ala-S8-Phe-BztA-Gln-NH2]	2.09	32 (≈ 56.3 µg/mL)
CC(=O)N1CCC[C@]12CC=CCCCC1(CCCC=CCCCCCC[C@@](C)(C(=O)N[C@@H](Cc3ccccc3)C(=O)N[C@@H](Cc3csc4ccccc34)C(=O)N[C@@H](CCC(N)=O)C(N)=O)NC(=O)[C@H](C)NC(=O)[C@H](Cc3c[nH]cn3)NC(=O)[C@H](C)NC(=O)[C@H](C)NC(=O)[C@H](CC(=O)O)NC(=O)[C@H](CC(=O)O)NC1=O)NC(=O)[C@H](C)NC(=O)[C@H](CC(=O)O)NC2=O (stereo partly drawn) [I-364, Ac-PL3-Asp-Ala-B5-Asp-Asp-Ala-Ala-His-Ala-S8-Phe-BztA-Gln-NH2]	2.137	26 (≈ 45.8 µg/mL)
CC(=O)N1CCC[C@]12CC=CCCCC1(CCCC=CCCCCCC[C@@](C)(C(=O)N[C@@H](Cc3ccccn3)C(=O)N[C@@H](Cc3csc4ccccc34)C(=O)N[C@@H](CCC(N)=O)C(N)=O)NC(=O)[C@H](C(C)C)NC(=O)[C@H](Cc3ccccc3)NC(=O)[C@H](C)NC(=O)[C@H](C)NC(=O)[C@H](CCC(=O)O)NC(=O)[C@H](CC(=O)O)NC1=O)NC(=O)[C@H](C)NC(=O)[C@H](CC(=O)O)NC2=O (stereo partly drawn) [I-383, Ac-PL3-Asp-Ala-B5-Asp-Glu-Ala-Ala-Phe-Val-S8-2pyrA-BztA-Gln-NH2]	1.859	36 (≈ 65.3 µg/mL)
CC(=O)N1CCC[C@]12CC=CCCCC1(CCCC=CCCCCCC[C@@](C)(C(=O)N[C@@H](Cc3ccccc3)C(=O)N[C@@H](Cc3csc4ccccc34)C(=O)N[C@@H](CCC(N)=O)C(N)=O)NC(=O)[C@H](C(C)C)NC(=O)[C@H](Cc3ccccn3)NC(=O)[C@H](C)NC(=O)[C@H](C)NC(=O)[C@H](CCC(=O)O)NC(=O)[C@H](CC(=O)O)NC1=O)NC(=O)[C@H](C)NC(=O)[C@H](CC(=O)O)NC2=O (stereo partly drawn) [I-386, Ac-PL3-Asp-Ala-B5-Asp-Glu-Ala-Ala-2pyrA-Val-S8-Phe-BztA-Gln-NH2]	2.14	47 (≈ 85.2 µg/mL)
CC(=O)N1CCC[C@]12CC=CCCCC1(CCCC=CCCCCCC[C@@](C)(C(=O)N[C@@H](Cc3cccc(F)c3F)C(=O)N[C@@H](Cc3csc4ccccc34)C(=O)N[C@@H](CCC(N)=O)C(N)=O)NC(=O)[C@H](C(C)C)NC(=O)[C@H](Cc3ccccc3)NC(=O)[C@H](C)NC(=O)[C@H](C)NC(=O)[C@H](CCC(=O)O)NC(=O)[C@H](CC(=O)O)NC1=O)NC(=O)[C@H](C)NC(=O)[C@H](CC(=O)O)NC2=O (stereo partly drawn) [I-388, Ac-PL3-Asp-Ala-B5-Asp-Glu-Ala-Ala-Phe-Val-S8-23FF-BztA-Gln-NH2]	2.863	10 (≈ 18.5 µg/mL)
CC(=O)N1CCC[C@]12CC=CCCCC1(CCCC=CCCCCCC[C@@](C)(C(=O)N[C@@H](Cc3cccc(F)c3F)C(=O)N[C@@H](Cc3csc4ccccc34)C(=O)N[C@@H](CCC(N)=O)C(N)=O)NC(=O)[C@H](C(C)C)NC(=O)[C@H](Cc3ccccc3)NC(=O)[C@H](C)NC(=O)[C@H](C)NC(=O)[C@H](CCC(=O)O)NC(=O)[C@H](CC(=O)O)NC1=O)NC(=O)[C@H](C)NC(=O)[C@H](CC(=O)O)NC2=O (stereo partly drawn) [I-389, Ac-PL3-Asp-Ala-B5-Asp-Glu-Ala-Ala-Phe-Val-S8-23FF-BztA-Gln-NH2]	2.868	17 (≈ 31.4 µg/mL)
CC(=O)N1CCC[C@]12CC=CCCCC1(CCCC=CCCCCCC[C@@](C)(C(=O)N[C@@H](Cc3ccccc3)C(=O)N[C@@H](Cc3csc4ccccc34)C(=O)N[C@@H](CCC(N)=O)C(N)=O)NC(=O)[C@H](CCC(N)=O)NC(=O)[C@H](Cc3ccccc3)NC(=O)[C@H](C)NC(=O)[C@H](C)NC(=O)[C@H](CCC(=O)O)NC(=O)[C@H](CC(=O)O)NC1=O)NC(=O)[C@H](C)NC(=O)[C@H](Cc1nn[nH]n1)NC2=O (stereo partly drawn) [I-416, Ac-PL3-tetz-Ala-B5-Asp-Glu-Ala-Ala-Phe-Gln-S8-Phe-BztA-Gln-NH2]	2.058	44 (≈ 82.1 µg/mL)
CC(=O)N1CCC[C@]12CC=CCCCC1(CCCC=CCCCCCC[C@@](C)(C(=O)N[C@@H](Cc3ccccc3)C(=O)N[C@@H](Cc3csc4ccccc34)C(=O)N[C@@H](CCC(N)=O)C(N)=O)NC(=O)[C@H](CCC(N)=O)NC(=O)[C@H](Cc3ccccc3)NC(=O)[C@H](C)NC(=O)[C@H](C)NC(=O)[C@H](CCC(=O)O)NC(=O)[C@H](CC(=O)O)NC1=O)NC(=O)[C@H](C)NC(=O)[C@H](Cc1nn[nH]n1)NC2=O (stereo partly drawn) [I-417, Ac-PL3-tetz-Ala-B5-Asp-Glu-Ala-Ala-Phe-Gln-S8-Phe-BztA-Gln-NH2]	2.085	30 (≈ 56 µg/mL)
CC(=O)N1CCC[C@]12CC=CCCCC1(CCCC=CCCCCCC[C@@](C)(C(=O)N[C@@H](Cc3cn(C)cn3)C(=O)N[C@@H](Cc3csc4ccccc34)C(=O)N[C@@H](CCC(N)=O)C(N)=O)NC(=O)[C@H](CC(N)=O)NC(=O)[C@H](Cc3ccccc3)NC(=O)[C@H](C)NC(=O)[C@H](C)NC(=O)[C@H](CCC(=O)O)NC(=O)[C@H](CC(=O)O)NC1=O)NC(=O)[C@H](C)NC(=O)[C@H](CC(=O)O)NC2=O (stereo partly drawn) [I-439, Ac-PL3-Asp-Ala-B5-Asp-Glu-Ala-Ala-Phe-Asn-S8-1meH-BztA-Gln-NH2]	1.408	50 (≈ 91.6 µg/mL)
CC(=O)N1CCC[C@]12CC=CCCCC1(CCCC=CCCCCCC[C@@](C)(C(=O)N[C@@H](Cc3cn(C)cn3)C(=O)N[C@@H](Cc3csc4ccccc34)C(=O)N[C@@H](CCC(N)=O)C(N)=O)NC(=O)[C@H](CC(N)=O)NC(=O)[C@H](Cc3ccccc3)NC(=O)[C@H](C)NC(=O)[C@H](C)NC(=O)[C@H](CCC(=O)O)NC(=O)[C@H](CC(=O)O)NC1=O)NC(=O)[C@H](C)NC(=O)[C@H](CC(=O)O)NC2=O (stereo partly drawn) [I-440, Ac-PL3-Asp-Ala-B5-Asp-Glu-Ala-Ala-Phe-Asn-S8-1meH-BztA-Gln-NH2]	1.613	50 (≈ 91.6 µg/mL)
CC(=O)N1CCC[C@]12CC=CCCCC1(CCCC=CCCCCCC[C@@](C)(C(=O)N[C@@H](Cc3cccc(F)c3)C(=O)N[C@@H](Cc3c[nH]c4ccccc34)C(=O)N[C@@H](CCC(N)=O)C(N)=O)NC(=O)[C@H](CCC(N)=O)NC(=O)[C@H](Cc3ccsc3)NC(=O)[C@H](C)NC(=O)[C@H](C)NC(=O)[C@H](CCC(=O)O)NC(=O)[C@H](CC(=O)O)NC1=O)NC(=O)[C@H](C)NC(=O)[C@H](CC(=O)O)NC2=O (stereo partly drawn) [I-451, Ac-PL3-Asp-Ala-B5-Asp-Glu-Ala-Ala-3Thi-Gln-S8-3FF-Trp-Gln-NH2]	1.88	50 (≈ 92.4 µg/mL)
C=CC(=O)NC[C@H](NC(=O)[C@]1(C)CCCCCCC=CCCCC2(CCCC=CC[C@]3(CCCN3C(C)=O)C(=O)N[C@@H](CC(=O)O)C(=O)N[C@@H]([C@@H](C)CC)C(=O)N2)C(=O)N[C@@H](CC(=O)O)C(=O)N[C@@H](CC(=O)O)C(=O)N[C@@H](C)C(=O)N[C@@H](C)C(=O)N[C@@H](Cc2ccccc2)C(=O)N[C@@H](CCC(N)=O)C(=O)N1)C(=O)N[C@@H](Cc1csc2ccccc12)C(=O)N[C@@H](CCC(N)=O)C(N)=O (stereo partly drawn) [I-483, Ac-PL3-Asp-Ile-B5-Asp-Asp-Ala-Ala-Phe-Gln-S8-[Acryl]Dap-BztA-Gln-NH2]	1.845	43 (≈ 80.1 µg/mL)
C=CC(=O)NC[C@H](NC(=O)[C@]1(C)CCCCCCC=CCCCC2(CCCC=CC[C@]3(CCCN3C(C)=O)C(=O)N[C@@H](CC(=O)O)C(=O)N[C@@H]([C@@H](C)CC)C(=O)N2)C(=O)N[C@@H](CC(=O)O)C(=O)N[C@@H](CC(=O)O)C(=O)N[C@@H](C)C(=O)N[C@@H](C)C(=O)N[C@@H](Cc2ccccc2)C(=O)N[C@@H](CCC(N)=O)C(=O)N1)C(=O)N[C@@H](Cc1csc2ccccc12)C(=O)N[C@@H](CCC(N)=O)C(N)=O (stereo partly drawn) [I-484, Ac-PL3-Asp-Ile-B5-Asp-Asp-Ala-Ala-Phe-Gln-S8-[Acryl]Dap-BztA-Gln-NH2]	1.863	45 (≈ 83.8 µg/mL)
CC(=O)N1CCC[C@]12CC=CCCCC1(CCCC=CCCCCCC[C@@](C)(C(=O)N[C@@H](Cc3ccccc3)C(=O)N[C@@H](Cc3csc4ccccc34)C(=O)N[C@@H](CCC(N)=O)C(N)=O)NC(=O)[C@H](CCC(N)=O)NC(=O)[C@H](Cc3ccccc3)NC(=O)[C@H](C)NC(=O)[C@H](C)NC(=O)[C@H](CCC(=O)O)NC(=O)[C@H](CCO)NC1=O)NC(=O)[C@H](C)NC(=O)[C@H](CC(=O)O)NC2=O (stereo partly drawn) [I-496, Ac-PL3-Asp-Ala-B5-Hse-Glu-Ala-Ala-Phe-Gln-S8-Phe-BztA-Gln-NH2]	2.456	41 (≈ 74.9 µg/mL)
CC(=O)N1CCC[C@]12CC=CCCCC1(CCCC=CCCCCCC[C@@](C)(C(=O)N[C@@H](Cc3ccccc3)C(=O)N[C@@H](Cc3csc4ccccc34)C(=O)N[C@@H](CCC(N)=O)C(N)=O)NC(=O)[C@H](CCC(N)=O)NC(=O)[C@H](Cc3ccccc3)NC(=O)[C@H](C)NC(=O)[C@H](C)NC(=O)[C@H](CCC(=O)O)NC(=O)[C@H](CCO)NC1=O)NC(=O)[C@H](C)NC(=O)[C@H](CC(=O)O)NC2=O (stereo partly drawn) [I-497, Ac-PL3-Asp-Ala-B5-Hse-Glu-Ala-Ala-Phe-Gln-S8-Phe-BztA-Gln-NH2]	2.6	29 (≈ 53 µg/mL)
CC(=O)N1CCC[C@]12CC=CCCCC1(CCCC=CCCCCCC[C@@](C)(C(=O)N[C@@H](Cc3ccccc3)C(=O)N[C@@H](Cc3csc4ccccc34)C(=O)N[C@@H](CCC(N)=O)C(N)=O)NC(=O)[C@H](CCC(N)=O)NC(=O)[C@H](Cc3ccccc3)NC(=O)[C@H](C)NC(=O)[C@H](C)NC(=O)[C@H](CCC(=O)O)NC(=O)[C@H](CCO)NC1=O)NC(=O)[C@H](C)NC(=O)[C@H](CC(=O)O)NC2=O (stereo partly drawn) [I-498, Ac-PL3-Asp-Ala-B5-Hse-Glu-Ala-Ala-Phe-Gln-S8-Phe-BztA-Gln-NH2]	2.637	42 (≈ 76.7 µg/mL)
